# Laboratory results from article PMC5399312 (Journal of Experimental & Clinical Cancer Research : CR, 2017).
# Columns and labels:
# [1] = target: T1, G6P-DH (Leuconostoc mesenteroides, UniProt P11411); assay: Interference with coupling enzyme; format: biochemical
# T1 construct: purchased Roche (Switzerland)
# T1 sequence (P11411 1-486): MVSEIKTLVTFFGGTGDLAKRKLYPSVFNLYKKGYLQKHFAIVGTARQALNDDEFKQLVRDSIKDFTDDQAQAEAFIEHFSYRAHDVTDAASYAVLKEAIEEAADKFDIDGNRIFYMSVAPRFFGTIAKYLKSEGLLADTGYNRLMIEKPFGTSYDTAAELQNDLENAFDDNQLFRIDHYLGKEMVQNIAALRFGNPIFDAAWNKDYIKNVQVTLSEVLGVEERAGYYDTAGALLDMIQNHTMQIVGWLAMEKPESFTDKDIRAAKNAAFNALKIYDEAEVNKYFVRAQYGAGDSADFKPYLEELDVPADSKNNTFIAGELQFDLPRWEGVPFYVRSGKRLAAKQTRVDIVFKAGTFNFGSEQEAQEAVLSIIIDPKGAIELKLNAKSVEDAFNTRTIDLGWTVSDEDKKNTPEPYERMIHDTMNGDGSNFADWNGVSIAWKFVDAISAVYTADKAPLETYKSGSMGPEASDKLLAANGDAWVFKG
# Procedure: (§1) Then 85 μL assay mix containing 100 mM Tris HCl pH 8.0, 5 mM MgCl2, 200 mM Glucose, 0.8 mM ATP, 1 mM NAD^+, 0.25 Units of G6P-DH, was added.
# [2] = test system: SW480 cells transfected with HK2 siRNA; assay: HK2 siRNA knock-down, CCK-8 cytotoxicity; format: cell-based, human; details: compared with negative control siRNA cells
# Source text: SW480 cells were transfected with either two siRNAs against HK2 or one nontargeting siRNA and cultured in 6-well plates according to the manufacturer’s instructions. The target sequences of oligo siRNAs were as follows: siRNA: 5'- […] -3', nontargeting siRNA (Negative control, NC): 5'- […] -3' [21].
# [3] = Detection of free Benz in tumor tissue (HPLC); format: in vivo, mouse; details: 600 mg/Kg Benz-treated group
# Procedure: After recording the weights of tumor mass, tumor tissues from 600 mg/Kg Benz-treated group and 200 mg/Kg liposomal Benz-treated group were lightly washed and blotted to remove any excess blood. Then tumor tissues were homogenized and extracted with methanol, and 100 μL of the extracts were then subjected to HPLC assay. HPLC analysis was conducted by using a reverse phase column (Restek C18 5 μm, 250 mm × 4.6 mm) with a mobile phase of methanol-water- trifluoroacetic acid (20: 1000: 1).
# [4] = test system: SW480 cells; assay: Cell proliferation assay (CCK-8); format: cell-based, human; details: 100, 200, 400 μM, 24-96 h
# Procedure: (§2) HCT116 and SW480 cells were seeded at a density of 2 × 10^3 per well into 96-well plates. Cell proliferation was assessed by incubating them with Cell Counting Kit-8 reagents (Dojindo, Shanghai, China) for 24 h,48 h, 72 h, 96 h at 37 °C and measuring the absorbance at 450 nm. The experiment was performed in triplicate.
# [5] = test system: HCT116 cells; assay: Cell proliferation assay (CCK-8); format: cell-based, human; details: 100, 200, 400 μM, 24-96 h
# Procedure: as §2
# [6] = target: T2, HK4 (Homo sapiens, UniProt P35557); assay: In vitro enzyme inhibition assay (G6P-DH coupled, NADH 340 nm); format: biochemical; details: recombinant HK4
# T2 construct: made in house; host or cells: E. coli BL21 (DE3)
# T2 sequence (P35557 1-465): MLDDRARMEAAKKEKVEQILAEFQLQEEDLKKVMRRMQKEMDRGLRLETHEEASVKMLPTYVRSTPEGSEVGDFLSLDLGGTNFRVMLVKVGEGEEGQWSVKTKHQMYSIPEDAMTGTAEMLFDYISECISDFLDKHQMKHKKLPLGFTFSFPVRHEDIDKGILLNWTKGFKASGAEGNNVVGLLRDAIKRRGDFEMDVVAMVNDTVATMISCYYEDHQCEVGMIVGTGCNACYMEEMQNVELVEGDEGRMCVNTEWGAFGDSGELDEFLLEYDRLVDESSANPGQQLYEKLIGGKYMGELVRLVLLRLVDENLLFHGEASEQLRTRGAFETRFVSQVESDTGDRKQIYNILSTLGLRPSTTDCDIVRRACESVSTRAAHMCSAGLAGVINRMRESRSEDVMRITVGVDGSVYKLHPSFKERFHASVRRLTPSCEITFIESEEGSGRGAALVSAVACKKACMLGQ
# Procedure: as §1
# [7] = target: T3, HK1 (Homo sapiens, UniProt P19367); assay: as above; format: biochemical; details: recombinant HK1
# T3 construct: purchased Shanghai yuanye Bio-Technology Co., Ltd (China)
# T3 sequence (P19367 1-917): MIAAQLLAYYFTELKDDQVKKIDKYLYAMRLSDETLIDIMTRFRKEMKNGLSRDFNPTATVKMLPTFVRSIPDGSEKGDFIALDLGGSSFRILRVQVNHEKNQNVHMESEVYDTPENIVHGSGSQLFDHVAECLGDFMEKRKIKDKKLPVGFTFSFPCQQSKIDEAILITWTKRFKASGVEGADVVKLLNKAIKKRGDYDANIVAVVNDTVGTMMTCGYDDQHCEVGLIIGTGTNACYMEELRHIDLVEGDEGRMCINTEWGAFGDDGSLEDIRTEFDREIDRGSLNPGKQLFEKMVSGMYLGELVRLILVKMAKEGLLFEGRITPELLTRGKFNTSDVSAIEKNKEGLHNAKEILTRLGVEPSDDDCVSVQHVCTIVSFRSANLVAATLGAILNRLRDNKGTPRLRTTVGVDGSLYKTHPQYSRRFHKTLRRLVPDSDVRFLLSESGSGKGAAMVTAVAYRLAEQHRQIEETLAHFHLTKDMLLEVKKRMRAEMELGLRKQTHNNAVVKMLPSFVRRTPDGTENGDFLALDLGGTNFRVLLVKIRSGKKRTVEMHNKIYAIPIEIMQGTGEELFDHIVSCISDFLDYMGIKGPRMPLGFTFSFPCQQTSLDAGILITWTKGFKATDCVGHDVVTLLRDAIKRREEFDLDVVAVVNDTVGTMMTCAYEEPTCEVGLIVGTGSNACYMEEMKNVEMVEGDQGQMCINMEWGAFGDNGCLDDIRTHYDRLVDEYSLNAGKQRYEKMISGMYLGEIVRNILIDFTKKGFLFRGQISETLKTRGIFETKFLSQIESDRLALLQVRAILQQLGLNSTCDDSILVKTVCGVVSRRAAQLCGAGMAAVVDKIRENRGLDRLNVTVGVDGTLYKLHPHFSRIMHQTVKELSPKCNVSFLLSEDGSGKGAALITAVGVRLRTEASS
# Procedure: as §1
# [8] = test system: SW480 cells; assay: Measurement of intracellular ATP level; format: cell-based, human; details: 75, 150 and 300 μM, 48 h
# Procedure: After centrifugation, supernatants were assayed by ATP assay kit (KeyGen, Nanjing, China) to determine the generation of ATP. The assay was determined using the plate reader (Synergy HT, BioTek, USA) at 636 nm.
compound,measurement,setting,value
"NC(CO)C(=O)NNCc1ccc(O)c(O)c1O (centres unmarked) [Benz, Benserazide]",interference with G6P-DH activity,[1],No Benz interference
same,cytotoxicity to HK2 siRNA transfected cells,[2],fewer effects
same,average concentration of free Benz in tumor tissue,[3],5.59 µg/mg
same,cell proliferation,[4],markedly inhibited proliferation
same,cell proliferation,[5],markedly inhibited proliferation
same,IC50,[6],40.5 ± 2.94 µM
same,IC50,[7],25.13 ± 0.24 µM
same,intracellular ATP level,[8],reduced
